Source: patent US10800791B2, “Triazole ACC inhibitors and uses thereof” (Gilead Apollo, LLC, priority 2015, dated 2020)
Converted amounts (≈) assume the structure as drawn. Where two headings read alike, the source gives them in different places.

Legend:
human (hACC2) = human (hACC2) (Homo sapiens, UniProt O00763); test: In vitro ACC inhibition assay (ADP-Glo), hACC2; assay type: biochemical; details: 5 nM ACC2, 20 μM ATP, 20 μM acetyl-CoA
Experimental: The detailed procedure is as follows. […] 10 μL ADP glo reagent was added. […] 20 μL kinase detection reagent was added.

C. albicans = test: Antifungal Activity Assay (broth microtiter MIC), C. albicans; assay type: cell-based, Candida albicans; details: Candida albicans, ATCC90028, 48 h, ATCC 90028, 3 replicates, MIC recorded at 48 h, read-out: MIC, C. albicans ATCC 90028
Method in brief: (§1)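 Broth microdilution per CLSI M27-A3 in RPMI 1640+MOPS, inoculum 2.5×10^3 CFU/mL final from overnight Sabouraud dextrose agar cultures at 35° C. Compounds diluted from DMSO stock to 128 μg/mL in water. MIC read visually versus growth control at 48 h.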

C. krusei = test: Antifungal Activity Assay (broth microtiter MIC), C. krusei; assay type: cell-based, Candida krusei; details: Pichia kudriavzevii, ATCC6258, 48 h, ATCC 6258, 3 replicates, MIC recorded at 48 h, read-out: MIC, C. krusei ATCC 6258
Method in brief: as §1

C. parapsilosis = test: Antifungal Activity Assay (broth microtiter MIC), C. parapsilosis; assay type: cell-based, Candida parapsilosis; details: Lodderomyces parapsilosis, ATCC22019, 48 h, ATCC 22019, 3 replicates, MIC recorded at 48 h, read-out: MIC, C. parapsilosis ATCC 22019
Method in brief: as §1

fungal (fACC2) = fungal (fACC2) (UniProt Q00955); details: read-out: fACC2 (in vitro ACC2 Inhibition Assay, IC50), ADP-Glo, 5 nM ACC2, 20 μM ATP, 20 μM acetyl-CoA
fungal (fACC2), sequence (Q00955 whole entry): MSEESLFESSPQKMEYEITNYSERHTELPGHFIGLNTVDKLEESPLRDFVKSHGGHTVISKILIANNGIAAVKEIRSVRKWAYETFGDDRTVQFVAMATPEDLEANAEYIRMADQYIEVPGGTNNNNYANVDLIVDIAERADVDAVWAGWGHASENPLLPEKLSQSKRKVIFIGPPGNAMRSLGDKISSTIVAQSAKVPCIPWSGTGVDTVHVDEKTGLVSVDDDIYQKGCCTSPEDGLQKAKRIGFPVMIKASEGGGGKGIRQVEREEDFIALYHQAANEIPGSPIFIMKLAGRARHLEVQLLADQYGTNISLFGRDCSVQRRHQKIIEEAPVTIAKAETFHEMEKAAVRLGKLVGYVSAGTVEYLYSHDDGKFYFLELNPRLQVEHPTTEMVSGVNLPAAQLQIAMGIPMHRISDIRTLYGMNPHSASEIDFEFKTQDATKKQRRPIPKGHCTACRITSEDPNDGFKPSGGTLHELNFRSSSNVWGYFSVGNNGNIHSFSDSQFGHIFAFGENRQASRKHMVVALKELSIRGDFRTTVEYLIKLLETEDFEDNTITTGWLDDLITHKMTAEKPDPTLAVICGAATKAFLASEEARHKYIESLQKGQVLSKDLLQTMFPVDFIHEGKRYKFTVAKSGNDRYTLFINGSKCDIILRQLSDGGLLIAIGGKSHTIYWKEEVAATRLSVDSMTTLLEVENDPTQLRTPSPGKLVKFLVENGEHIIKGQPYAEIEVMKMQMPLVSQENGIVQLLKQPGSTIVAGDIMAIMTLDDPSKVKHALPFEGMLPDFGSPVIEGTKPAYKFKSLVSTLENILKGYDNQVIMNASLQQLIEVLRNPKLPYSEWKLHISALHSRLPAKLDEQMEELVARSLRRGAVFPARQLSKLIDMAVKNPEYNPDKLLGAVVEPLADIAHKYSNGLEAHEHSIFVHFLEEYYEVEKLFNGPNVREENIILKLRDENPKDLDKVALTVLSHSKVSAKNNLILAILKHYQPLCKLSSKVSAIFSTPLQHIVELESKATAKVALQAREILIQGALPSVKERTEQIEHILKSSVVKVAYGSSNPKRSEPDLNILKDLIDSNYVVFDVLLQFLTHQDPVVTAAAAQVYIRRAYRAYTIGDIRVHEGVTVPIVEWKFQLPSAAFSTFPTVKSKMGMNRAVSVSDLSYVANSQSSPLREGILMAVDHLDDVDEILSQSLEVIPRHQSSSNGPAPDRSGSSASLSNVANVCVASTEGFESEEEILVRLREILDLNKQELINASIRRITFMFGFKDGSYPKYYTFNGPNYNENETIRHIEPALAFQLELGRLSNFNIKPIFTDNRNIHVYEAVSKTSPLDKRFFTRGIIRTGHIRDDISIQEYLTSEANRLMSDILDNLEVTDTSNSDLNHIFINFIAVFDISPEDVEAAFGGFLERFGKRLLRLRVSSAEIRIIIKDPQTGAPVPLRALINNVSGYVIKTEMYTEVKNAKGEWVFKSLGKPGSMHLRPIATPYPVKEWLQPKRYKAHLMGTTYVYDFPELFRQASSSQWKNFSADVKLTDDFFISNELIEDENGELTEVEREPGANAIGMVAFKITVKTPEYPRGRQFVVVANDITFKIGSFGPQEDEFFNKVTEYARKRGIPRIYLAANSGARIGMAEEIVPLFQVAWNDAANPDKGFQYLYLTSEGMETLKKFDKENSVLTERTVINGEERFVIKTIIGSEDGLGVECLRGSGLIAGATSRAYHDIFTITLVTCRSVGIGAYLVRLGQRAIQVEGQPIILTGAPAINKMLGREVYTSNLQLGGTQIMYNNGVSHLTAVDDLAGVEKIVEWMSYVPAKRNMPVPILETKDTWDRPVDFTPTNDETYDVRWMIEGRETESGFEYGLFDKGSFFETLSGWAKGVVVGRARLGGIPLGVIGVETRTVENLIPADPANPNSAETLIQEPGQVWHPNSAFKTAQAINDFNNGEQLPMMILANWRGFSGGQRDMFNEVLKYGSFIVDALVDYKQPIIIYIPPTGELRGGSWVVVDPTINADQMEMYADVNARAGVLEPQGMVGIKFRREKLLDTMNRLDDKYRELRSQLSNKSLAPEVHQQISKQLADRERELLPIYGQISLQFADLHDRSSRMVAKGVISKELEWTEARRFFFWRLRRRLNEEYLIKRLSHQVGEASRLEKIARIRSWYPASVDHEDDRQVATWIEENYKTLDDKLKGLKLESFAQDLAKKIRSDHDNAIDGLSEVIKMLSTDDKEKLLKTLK

human (hACC2), sequence (O00763 whole entry): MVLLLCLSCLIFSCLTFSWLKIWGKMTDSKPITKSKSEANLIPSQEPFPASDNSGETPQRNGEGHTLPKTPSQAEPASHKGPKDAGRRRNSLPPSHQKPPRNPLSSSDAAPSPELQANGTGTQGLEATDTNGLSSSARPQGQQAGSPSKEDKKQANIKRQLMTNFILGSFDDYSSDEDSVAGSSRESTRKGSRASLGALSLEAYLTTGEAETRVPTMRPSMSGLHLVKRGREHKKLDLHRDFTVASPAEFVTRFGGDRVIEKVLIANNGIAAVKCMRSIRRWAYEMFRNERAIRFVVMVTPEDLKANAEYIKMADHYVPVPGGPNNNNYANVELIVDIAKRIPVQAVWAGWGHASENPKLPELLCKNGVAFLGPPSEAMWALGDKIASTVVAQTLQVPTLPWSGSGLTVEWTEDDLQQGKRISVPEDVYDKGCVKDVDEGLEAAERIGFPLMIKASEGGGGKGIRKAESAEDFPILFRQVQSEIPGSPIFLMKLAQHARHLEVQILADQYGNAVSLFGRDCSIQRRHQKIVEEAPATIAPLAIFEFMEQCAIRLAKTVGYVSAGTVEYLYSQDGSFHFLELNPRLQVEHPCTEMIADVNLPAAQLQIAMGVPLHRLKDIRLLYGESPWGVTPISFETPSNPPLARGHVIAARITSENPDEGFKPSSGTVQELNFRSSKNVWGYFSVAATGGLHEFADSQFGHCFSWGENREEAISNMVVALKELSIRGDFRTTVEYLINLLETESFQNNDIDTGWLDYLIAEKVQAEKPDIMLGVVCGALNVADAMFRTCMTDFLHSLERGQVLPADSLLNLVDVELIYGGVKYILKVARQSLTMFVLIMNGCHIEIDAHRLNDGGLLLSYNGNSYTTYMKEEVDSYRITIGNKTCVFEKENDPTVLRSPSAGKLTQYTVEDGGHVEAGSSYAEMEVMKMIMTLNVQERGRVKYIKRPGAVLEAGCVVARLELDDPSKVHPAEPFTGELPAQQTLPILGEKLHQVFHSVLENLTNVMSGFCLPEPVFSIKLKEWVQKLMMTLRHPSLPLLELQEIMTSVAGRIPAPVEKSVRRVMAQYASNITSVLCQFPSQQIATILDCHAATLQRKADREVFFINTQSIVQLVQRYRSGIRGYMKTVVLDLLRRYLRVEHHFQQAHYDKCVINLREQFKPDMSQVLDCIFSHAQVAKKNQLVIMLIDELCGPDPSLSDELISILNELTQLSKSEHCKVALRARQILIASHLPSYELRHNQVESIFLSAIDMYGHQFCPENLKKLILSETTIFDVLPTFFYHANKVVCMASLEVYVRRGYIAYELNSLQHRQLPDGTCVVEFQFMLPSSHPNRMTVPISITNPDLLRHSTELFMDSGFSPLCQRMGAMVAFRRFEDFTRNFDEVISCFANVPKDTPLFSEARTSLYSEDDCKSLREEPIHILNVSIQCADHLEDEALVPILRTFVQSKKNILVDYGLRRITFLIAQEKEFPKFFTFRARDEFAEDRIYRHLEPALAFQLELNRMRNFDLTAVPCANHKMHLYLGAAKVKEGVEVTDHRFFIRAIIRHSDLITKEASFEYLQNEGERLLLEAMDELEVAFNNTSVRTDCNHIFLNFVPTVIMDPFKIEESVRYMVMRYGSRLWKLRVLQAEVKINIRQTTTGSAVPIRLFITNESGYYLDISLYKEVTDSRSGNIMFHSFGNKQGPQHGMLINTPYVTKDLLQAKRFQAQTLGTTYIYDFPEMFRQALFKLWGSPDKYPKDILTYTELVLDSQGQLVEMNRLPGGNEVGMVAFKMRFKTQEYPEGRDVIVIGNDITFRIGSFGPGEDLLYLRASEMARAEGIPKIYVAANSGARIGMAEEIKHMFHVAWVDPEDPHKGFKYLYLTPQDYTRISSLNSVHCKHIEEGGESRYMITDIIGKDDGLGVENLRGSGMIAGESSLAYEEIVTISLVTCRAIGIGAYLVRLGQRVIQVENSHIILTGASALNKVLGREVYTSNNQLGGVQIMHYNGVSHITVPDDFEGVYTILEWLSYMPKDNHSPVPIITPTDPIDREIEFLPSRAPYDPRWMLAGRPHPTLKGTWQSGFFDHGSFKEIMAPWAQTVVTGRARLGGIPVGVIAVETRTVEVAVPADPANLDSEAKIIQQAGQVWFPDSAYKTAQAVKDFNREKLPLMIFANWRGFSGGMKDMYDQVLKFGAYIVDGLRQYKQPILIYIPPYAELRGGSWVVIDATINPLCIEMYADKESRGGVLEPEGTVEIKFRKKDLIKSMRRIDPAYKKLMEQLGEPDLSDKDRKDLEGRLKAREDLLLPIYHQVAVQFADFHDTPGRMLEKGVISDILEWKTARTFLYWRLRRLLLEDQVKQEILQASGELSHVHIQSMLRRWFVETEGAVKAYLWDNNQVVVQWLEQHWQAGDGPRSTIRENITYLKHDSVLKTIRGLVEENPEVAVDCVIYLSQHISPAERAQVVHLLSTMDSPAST

SMILES | IC50 (human (hACC2); Table 2a) [nM] | IC50 (human (hACC2); Table 2b, additional results) [nM] | MIC (C. albicans; Table 3a) [µg/mL] | MIC (C. albicans; Table 3b (additional results)) [µg/mL] | MIC (C. krusei; Table 3a) [µg/mL] | MIC (C. krusei; Table 3b (additional results)) [µg/mL] | MIC (C. parapsilosis; Table 3a) [µg/mL] | MIC (C. parapsilosis; Table 3b (additional results)) [µg/mL] | IC50 (fungal (fACC2); Table 2a) [nM] | IC50 (fungal (fACC2); Table 2b, additional results) [nM]
COc1ccccc1[C@H](Cn1c(=O)n(C(C)(C)C(=O)N2CC=CC2)c(=O)c2c(C)c(-n3nccn3)sc21)OC1CCOCC1 [Compound I-101] | 5 to 10 | 5 to 10 | 0.25 to 1 (≈ 0.403 to 1.61 µM) | 1.01 to 2 (≈ 1.63 to 3.22 µM) | 0.25 to 1 (≈ 0.403 to 1.61 µM) | 1.01 to 2 (≈ 1.63 to 3.22 µM) | 0.25 to 1 (≈ 0.403 to 1.61 µM) | 1.01 to 2 (≈ 1.63 to 3.22 µM) | 1 to 5 | 1 to 5
CCc1ccc(F)cc1[C@H](Cn1c(=O)n(C(C)(C)C(=O)NC(C)C)c(=O)c2c(C)c(-n3nccn3)sc21)OCC(C)(C)O (stereo in doubt) [Compound I-240] | – | 10 to 40 | – | 1.01 to 2 (≈ 1.64 to 3.25 µM) | – | > 4.01 | – | 2.01 to 4 (≈ 3.27 to 6.51 µM) | – | 1 to 5
CCOC(=O)[C@H]1CC[C@@H](O[C@@H](Cn2c(=O)n(C(C)(C)C(=O)NC(C)C)c(=O)c3c(C)c(-n4nccn4)sc32)c2cc(F)ccc2OC)CC1 [Compound I-264] | – | 10 to 40 | – | 0.25 to 1 (≈ 0.358 to 1.43 µM) | – | 0.06 to 0.249 (≈ 0.0859 to 0.356 µM) | – | 0.25 to 1 (≈ 0.358 to 1.43 µM) | – | 1 to 5
COc1ccc(F)cc1[C@H](Cn1c(=O)n(C(C)(C)C(=O)NC(C)C)c(=O)c2c(C)c(-n3nccn3)sc21)OCC(C)=O [Compound I-97] | 1 to 5 | 1 to 5 | 0.25 to 1 (≈ 0.416 to 1.66 µM) | 1.01 to 2 (≈ 1.68 to 3.33 µM) | 0.06 to 0.24 (≈ 0.0999 to 0.4 µM) | 0.25 to 1 (≈ 0.416 to 1.66 µM) | 0.25 to 1 (≈ 0.416 to 1.66 µM) | 1.01 to 2 (≈ 1.68 to 3.33 µM) | 0.4 to 1 | 0.3 to 1
COc1ccc(F)cc1[C@H](Cn1c(=O)n([C@H](C)C(N)=O)c(=O)c2c(C)c(-n3nccn3)sc21)OCC(C)(C)O [Compound I-173] | 10 to 40 | 10 to 40 | – | 0.25 to 1 (≈ 0.446 to 1.78 µM) | – | > 4.01 | – | 2.01 to 4 (≈ 3.59 to 7.14 µM) | 1 to 5 | 1 to 5
Cc1c(-n2nccn2)sc2c1c(=O)n(C(C)(C)C(=O)N1CCCC1)c(=O)n2C[C@H](OC1CCOCC1)c1cc(F)ccc1OCC1COC1 [Compound I-110] | 5 to 10 | 5 to 10 | 0.25 to 1 (≈ 0.359 to 1.44 µM) | 0.25 to 1 (≈ 0.359 to 1.44 µM) | 0.25 to 1 (≈ 0.359 to 1.44 µM) | 1.01 to 2 (≈ 1.45 to 2.87 µM) | 0.25 to 1 (≈ 0.359 to 1.44 µM) | 1.01 to 2 (≈ 1.45 to 2.87 µM) | 1 to 5 | 1 to 5
Cc1c(-n2nccn2)sc2c1c(=O)n(C(C)(C)C(=O)NC(C)C)c(=O)n2C[C@H](OCCC#N)c1cc(F)ccc1OCc1ccccc1 [Compound I-249] | – | 5 to 10 | – | 2.01 to 4 (≈ 2.98 to 5.94 µM) | – | 2.01 to 4 (≈ 2.98 to 5.94 µM) | – | 1.01 to 2 (≈ 1.5 to 2.97 µM) | – | 0.3 to 1
Cc1c(-n2nccn2)sc2c1c(=O)n(C(C)(C)C(=O)N1CCCC1)c(=O)n2C[C@H](OC1CCOCC1)c1cc(F)ccc1OCCO [Compound I-112] | 1 to 5 | 1 to 5 | 0.25 to 1 (≈ 0.373 to 1.49 µM) | 0.25 to 1 (≈ 0.373 to 1.49 µM) | 0.25 to 1 (≈ 0.373 to 1.49 µM) | 0.25 to 1 (≈ 0.373 to 1.49 µM) | 0.25 to 1 (≈ 0.373 to 1.49 µM) | 1.01 to 2 (≈ 1.51 to 2.98 µM) | 0.4 to 1 | 0.3 to 1
COc1ccc(F)cc1[C@H](Cn1c(=O)n([C@@H](C)C(N)=O)c(=O)c2c(C)c(-n3nccn3)sc21)OCC(C)(C)O [Compound I-174] | 5 to 10 | 5 to 10 | – | 0.25 to 1 (≈ 0.446 to 1.78 µM) | – | > 4.01 | – | 2.01 to 4 (≈ 3.59 to 7.14 µM) | 0.4 to 1 | 0.3 to 1
COc1ccc(F)cc1[C@H](Cn1c(=O)n(C(C)(C)C(=O)NC(C)C)c(=O)c2c(C)c(-n3nccn3)sc21)O[C@H]1CC[C@H](C(=O)O)CC1 [Compound I-270] | – | 10 to 40 | – | 0.25 to 1 (≈ 0.373 to 1.49 µM) | – | 0.06 to 0.249 (≈ 0.0895 to 0.371 µM) | – | 0.25 to 1 (≈ 0.373 to 1.49 µM) | – | 0.3 to 1
COc1ccc(F)cc1[C@H](Cn1c(=O)n(C(C)(C)C(=O)NC(C)C)c(=O)c2c(C)c(-n3nccn3)sc21)O[C@H]1C[C@@H](OCc2ccccc2)C1 [Compound I-233] | – | 10 to 40 | – | 0.25 to 1 (≈ 0.355 to 1.42 µM) | – | 0.25 to 1 (≈ 0.355 to 1.42 µM) | – | 0.25 to 1 (≈ 0.355 to 1.42 µM) | – | 1 to 5
